Measurements taken from PubChem BioAssay AID179 (DTP/NCI, 2004).
Activity calls are given as the source filed them.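 Rule for the calls: active = compounds giving half or more protection of infected cells from virus-caused growth loss, again on retest; inactive = the rest.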

Test system: CEM cells HIV-1 protection, formazan growth assay
Experiment: NCI AIDS Antiviral Assay
Settings: for IC50: measured here: growth of uninfected CEM cells
In short: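 Soluble formazan readout of cell growth; CEM cells ± HIV-1; 5 drug concs. ≥50% protection → retest; ≥50% again = moderately active; reproducible 100% = confirmed active.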

With `CC(=O)Nc1ccc(/C(C#N)=C/c2ccc(N(C)CCC#N)cc2)cc1` the EC50 was > 200 µM and the IC50 was 19.1 µM.
For `O=S(=O)(O)c1cc2ccc1/C=C\c1ccc(cc1S(=O)(=O)O)N=Nc1ccc(c(S(=O)(=O)O)c1)/C=C\c1ccc(cc1S(=O)(=O)O)N=N2`, the outcome was “active”.
In the case of `O=C1Oc2ccccc2C(=O)/C1=C/N1C(=O)/C(=C/c2ccccc2)NC1=S`, the EC50 is reported as > 200 µM and the IC50 is reported as > 100 µM.
`O=C(NNc1nc(Cl)nc(Cl)n1)c1ccccc1` was tested, and the EC50 was > 200 µM and the IC50 was > 200 µM.
`CC(C)(C)[Si](C)(C)OCC1OC(n2ccc(=O)[nH]c2=O)CC1(O)C/C=N/O` (centres undefined) was tested, and the EC50 was > 200 µM and the IC50 was 12.6 µM.
With `NC(CCC(=O)NC(CS(=O)(=O)O)C(=O)O)C(=O)O` (centres undefined) the EC50 was > 603 µM and the IC50 was > 603 µM.
For `COc1cc(O)c2c(=O)c(O)c(-c3ccc(O)c(OC)c3)oc2c1`, the EC50 was > 200 µM and the IC50 was > 200 µM.
With `C[C@H]1C(=O)CC[C@]2(C)CCC(C(C)(C)O)CC12O` (some centres undefined) the outcome was “inactive”.
In the case of `O=c1c(/C=N/OCCCCO/N=C/c2cc3c(cc2[N+](=O)[O-])OCO3)coc2c(Cl)cc(Cl)cc12`, the EC50 is reported as > 200 µM and the IC50 is reported as 75.9 µM.
With `N#CC1=C(N)N(c2ccccc2)C(c2ccco2)C1(C#N)C#N` (centres undefined) the EC50 was > 200 µM and the IC50 was 10 µM.
For `COC1/C=C/OC2(C)Oc3c(C)c(O)c4c(O)c(c(/C=N/NC5CCCCCCCCCCCCCC5)c(O)c4c3C2=O)NC(=O)/C(C)=C\C=C\C(C)C(O)C(C)C(O)C(C)C(OC(C)=O)C1C` (centres undefined), the EC50 was > 200 µM and the IC50 was 10.5 µM.
With `O=c1[nH]c(=O)n(C2OC(CO)C(O)C2O)c2nc(-c3ccc(-c4ccccc4)cc3)cnc12` (centres undefined) the EC50 was > 200 µM and the IC50 was > 200 µM.
In the case of `CC1=NN(c2ccccc2)C(=O)C1=Nc1c(C)[nH]n(-c2ccccc2)c1=O`, the EC50 is reported as > 200 µM and the IC50 is reported as > 200 µM.
In the case of `Nc1nc(Cl)cc(NCC2(CO)CC(c3ccccc3)C2)n1` (centres undefined), the EC50 is reported as > 20 µM and the IC50 is reported as 1.58 µM.
In the case of `COc1ccc(I)c(CCC(CO)C2=CCC3(CC2)OCCO3)c1` (centres undefined), the EC50 is reported as > 16.2 µM and the IC50 is reported as > 16.2 µM.
For `CCCCn1cnc2ccc3[nH]c(C)nc3c2c1=O`, the EC50 was > 759 µM and the IC50 was 55 µM.
For `CC1=CC(O)C(C(O)(C(F)(F)F)C(F)(F)F)C(C)(C)C1` (centres undefined), the EC50 was > 200 µM and the IC50 was 178 µM.
For `N#Cc1c(Cl)c2cccnc2n2c1nc1ccccc12`, the EC50 was > 200 µM and the IC50 was 0.339 µM.
With `COC(=O)C1(C)C=CC(=O)C2(C)C1C(O)C1OC3CC(c4ccoc4)C(C)=C3C1(C)C2CC(=O)O` (centres undefined) the EC50 was > 490 µM and the IC50 was > 490 µM.
`COc1ccc2c(c1)c(=O)c(C(=O)O)cn2CCCOc1ccc([N+](=O)[O-])cc1` was tested, and the outcome was “inactive”.
In the case of `COC1(OC)C2(Cl)C(Cl)=C(Cl)C1(Cl)C1c3ccc(C(C)=O)c4cccc(c34)C12` (centres undefined), the outcome is reported as “inactive”.
With `COc1ccc2c(c1)CCc1c-2n(CCN2CCOCC2)c2ccc(OC)cc12` the EC50 was > 200 µM and the IC50 was 166 µM.
For `Cc1cccc2c1Oc1cc(Cl)ccc1C2NC(=O)CCN1CCCCC1` (centres undefined), the EC50 was > 200 µM and the IC50 was 11.2 µM.
For `COc1ccc(/C=C(/C(C)=O)c2ccccc2)cc1`, the EC50 was > 74.1 µM and the IC50 was > 74.1 µM.
`Cc1ccc(N=C(SSC(Cl)(Cl)Cl)SSC(Cl)(Cl)Cl)cc1` was tested, and the outcome was “inactive”.
With `O=c1c2c3c(sc2nc2n1N=C(c1ccc(Br)cc1)CS2)CCCC3` the EC50 was > 200 µM and the IC50 was > 200 µM.
For `Cc1ccc(S(=O)(=O)N(C)c2ccccc2)cc1`, the EC50 was > 200 µM and the IC50 was 52.5 µM.
In the case of `CN(C)CCCNC(=O)c1cc(NC(=O)c2cc(NC(=O)c3cc(NC(=O)/C=C/C(=O)Nc4cn(C)c(C(=O)Nc5cn(C)c(C(=O)Nc6cn(C)c(C(=O)NCCCN(C)C)n6)n5)n4)cn3C)cn2C)cn1C`, the EC50 is reported as > 50.1 µM and the IC50 is reported as > 50.1 µM.
In the case of `CC1C(=O)c2c(O)cc(O)cc2O[C@@H]1C` (some centres undefined), the EC50 is reported as > 200 µM and the IC50 is reported as > 200 µM.
With `Nc1nn2c(C(Br)Br)cc(C(Br)Br)nc2c1[N+](=O)[O-]` the EC50 was > 200 µM and the IC50 was 0.525 µM.
In the case of `C=[N+]([O-])CCC1(O)C(CO[Si](C)(C)C(C)(C)C)OC(n2ccc(=O)[nH]c2=O)C1O[Si](C)(C)C(C)(C)C` (centres undefined), the EC50 is reported as > 200 µM and the IC50 is reported as 12 µM.
In the case of `O=C(C=Nc1ccccc1C(=O)[O-])c1ccco1.O=C(C=Nc1ccccc1C(=O)[O-])c1ccco1.[Cu+2]`, the EC50 is reported as > 1.91 µM and the IC50 is reported as > 1.91 µM.
With `O=C1CSC(c2cccc(Cl)c2)N1c1ccc(-c2ccc(-n3c(-c4ccccc4)nc4ccccc4c3=O)cc2)cc1` (centres undefined) the EC50 was > 200 µM and the IC50 was 21.9 µM.
For `O=C1OC(Sc2ccccc2)(Sc2ccccc2)c2cccc3cccc1c23`, the outcome was “inactive”.
In the case of `CC(NS(C)(=O)=O)c1ccccc1` (centres undefined), the EC50 is reported as > 200 µM and the IC50 is reported as > 200 µM.
`Cc1[nH]c(N)nc(=S)c1CCC(=O)O` was tested, and the EC50 was > 200 µM and the IC50 was > 200 µM.
In the case of `O=C(NNC(=S)NCc1ccccc1)c1csc(NC(=S)NC2CCCCC2)n1`, the EC50 is reported as > 200 µM and the IC50 is reported as 57.5 µM.
`O=C(NCc1ccc2ccc3cccnc3c2n1)c1ccc[n+](Cc2ccccc2)c1` was tested, and the EC50 was > 513 µM and the IC50 was 24.5 µM.
`CC1=CC(O)C(Br)C(C)(C)C12CCC(C)(Cl)C(Br)C2` (centres undefined) was tested, and the EC50 was > 200 µM and the IC50 was 25.1 µM.
With `O=c1oc2ccccc2c(O)c1C1=N/C(=N/N=C/c2ccc(Cl)cc2)SC1` the EC50 was > 200 µM and the IC50 was > 200 µM.
For `CCOC(=O)C(=C=C=C(c1ccccc1)c1ccccc1)C(=O)OCC`, the outcome was “inactive”.
For `c1cc(-c2ccc(-c3ccc(-c4ccc(-c5cccc6nsnc56)[nH]4)c4nsnc34)[nH]2)c2nsnc2c1`, the EC50 was > 100 µM and the IC50 was > 100 µM.
In the case of `CC(=O)C1=C2SCCN2C(=O)CC1`, the EC50 is reported as > 135 µM and the IC50 is reported as > 135 µM.
In the case of `O=C(O)c1ccc(O)c(N=Nc2cc(S(=O)(=O)O)c3ccccc3c2O)c1`, the EC50 is reported as > 25.7 µM and the IC50 is reported as > 25.7 µM.
For `CN(C)N=Nc1ccc(S(N)(=O)=O)cc1`, the EC50 was > 295 µM and the IC50 was 37.2 µM.
In the case of `COC1=CC(=O)C(O)=C(CC2(C)C(C)CCC3(C)C2CCCC3(C)C)C1=O` (centres undefined), the EC50 is reported as > 95.5 µM and the IC50 is reported as 6.46 µM.
In the case of `O=C(OC[C@H]1O[C@@H](OC(=O)c2cc(O)c(O)c(O)c2)[C@H](OC(=O)c2cc(O)c(O)c(O)c2)[C@@H](OC(=O)c2cc(O)c(O)c(O)c2)[C@@H]1OC(=O)c1cc(O)c(O)c(O)c1)c1cc(O)c(O)c(O)c1`, the EC50 is reported as > 132 µM and the IC50 is reported as 21.4 µM.
With `COc1ccc2nc(NC(=O)C(=O)CC(=O)c3ccc(Cl)cc3)sc2c1` the outcome was “inactive”.
With `COc1ccccc1NC(=O)/C(=C/n1c(=S)sc2ccccc21)C(C)=O` the EC50 was > 200 µM and the IC50 was 115 µM.
With `CC1=NN2C(=N)/C(=C/c3ccccc3)C(=O)N=C2S1` the EC50 was > 200 µM and the IC50 was > 200 µM.
`CCCCCC=C(c1cc(C)c(OC)c(C(=O)OC)c1)c1cc(C)c(OC)c(C(=O)OC)c1` was tested, and the EC50 was > 51.3 µM and the IC50 was 25.7 µM.
With `OCC(O)c1cc(I)c(Oc2ccc(O)cc2)c(I)c1` (centres undefined) the EC50 was > 200 µM and the IC50 was > 200 µM.
In the case of `COc1cccc2c1OC1Sc3ccccc3-c3nn(-c4ccccc4)c-2c31` (centres undefined), the EC50 is reported as > 7.08 µM and the IC50 is reported as > 7.08 µM.
In the case of `O=C(O)c1cc([N+](=O)[O-])c2c(c1)P(=O)(O)c1cc(C(=O)O)cc([N+](=O)[O-])c1O2`, the EC50 is reported as > 200 µM and the IC50 is reported as > 200 µM.
For `CCOC(=O)c1cc(Br)c(-c2cc(C)no2)[nH]1`, the EC50 was > 200 µM and the IC50 was 1.48 µM.
`Cn1c2ccccc2c2nnc(N/N=C/c3ccc([N+](=O)[O-])o3)nc21` was tested, and the EC50 was > 200 µM and the IC50 was > 200 µM.
`Fc1ccc(/C=C2\COCC3=C2NC(=S)NC3c2ccc(F)cc2)cc1` (centres undefined) was tested, and the outcome was “inactive”.
`Cc1[nH]n(-c2ccccc2)c(=O)c1C=NC(=S)C(N)=S` was tested, and the EC50 was > 200 µM and the IC50 was 56.2 µM.
With `Clc1ccc(SSc2ccc(Cl)cc2Cl)c(Cl)c1` the EC50 was > 200 µM and the IC50 was 6.76 µM.
